Measured values from patent US20190223483A1, “SENSORY MODIFIER COMPOUNDS” (CARGILL, INCORPORATED, priority 2017, published 2019).
“And” between values parts separate entries of the source, which are not always exact repeats. Equal entries are not always repeated. “Also recorded” adds a separate entry of the source.

Legend:
[1] = Roundtable assessment of sweetness linger (scale 0 to 6); type: in vivo; set-up: key: 0 = none; 1 = trace/faint; 2 = slight; 3 = moderate; 4 = definite; 5 = strong; 6 = extreme
Protocol: In some aspects, the amount of sensory modifier compound effective to […] can be determined by panel testing with trained panelists. For example, sweetness linger can be determined by the following test: For other sweetness attributes, the solutions were tested by a panel of at least four individuals that are highly-trained in tasting steviol glycoside solutions. The highly-trained panelists used a roundtable methodology to assess each sweetness attribute. To test each solution, the highly-trained panelists dispensed approximately 2 mL of each solution into their own mouths by transfer pipet, dispersed the solution by moving their tongues, and recorded a value for the particular sweetness attribute being tested. Between tasting solutions, the panelists were able to cleanse their palates with water. For each sweetness attribute, the panelist agreed on a descriptive scale with relative intensities assigned for each sweetness attribute and then recorded the values for each sweetness attribute against this. For example, this roundtable assessment of sweetness linger assigned a scale of 0 to 6 with a score of 0 indicating no sweetness linger and a score of 6 indicating extreme sweetness linger. Roundtable assessment of sweetness linger assigned a scale of 0 to 6 with a score of 0 indicating no sweetness linger and a score of 6 indicating extreme sweetness linger (0=none, 1=trace, 2=slight, 3=moderate, 4=definite, 5=strong, 6=extreme). Roundtable assessment of rounded assigned a scale of 0 to 3 with a score of 0 indicating spikey and a score of 3 indicating desirable rounded (0=none, 1=mostly spikey, some rounded, 2=mostly rounded, some spikey, 3=rounded). Roundtable assessment of mouthfeel assigned a scale of 0 to 2 with a score of 0 indicating water and a score of 2 indicating syrupy (0=water, 1=sucrosey, 2=syrupy). Roundtable assessment of bitterness assigned a scale of 0 to 6 with a score of 0 indicating no bitterness and a score of 6 indicating extreme sweetness linger (0=none, 1=trace, 2=slight, 3=moderate, 4=definite, 5=strong, 6=extreme). Roundtable assessment of off tastes assigned a scale of 0 to 6 with a score of 0 indicating no bitterness and a score of 6 indicating extreme off tastes (0=none, 1=trace, 2=slight, 3=moderate, 4=definite, 5=strong, 6=extreme). […] Roundtable assessment of botanical notes assigned a scale of 0 to 5 with a score of 0 indicating no botanical notes and a score of 5 indicating strong (0=none, 1=trace, 2=slight, 3=moderate, 4=definite, 5=strong). Exemplary tests are recorded below in Example 1.
For other sweetness attributes, the solutions were tested by a panel of at least four individuals that are highly-trained in tasting steviol glycoside solutions. The highly-trained panelists used a roundtable methodology to assess each sweetness attribute. To test each solution, the highly-trained panelists dispensed approximately 2 mL of each solution into their own mouths by transfer pipet, dispersed the solution by moving their tongues, and recorded a value for the particular sweetness attribute being tested. Between tasting solutions, the panelists were able to cleanse their palates with water. For each sweetness attribute, the panelist agreed on a descriptive scale with relative intensities assigned for each sweetness attribute and then recorded the values for each sweetness attribute against this. For example, this roundtable assessment of sweetness linger assigned a scale of 0 to 6 with a score of 0 indicating no sweetness linger and a score of 6 indicating extreme sweetness linger. Roundtable assessment of sweetness linger assigned a scale of 0 to 6 with a score of 0 indicating no sweetness linger and a score of 6 indicating extreme sweetness linger (0=none, 1=trace, 2=slight, 3=moderate, 4=definite, 5=strong, 6=extreme). […]

[2] = Roundtable assessment of astringency; type: in vivo; set-up: key: 0 = none; 1 = trace/faint; 2 = slight; 3 = moderate; 4 = definite; 5 = strong; 6 = extreme
Protocol: Solutions of steviol glycosides and sensory modifier compound were prepared at increasing ratios of sensory modifier to steviol glycoside by weight. […] The concentration of steviol glycosides was 700 ppm in each solution. The solutions were tested for astringency.

[3] = steviol glycoside 700 ppm + yerba mate mono/dicaffeoylquinic acids 630 ppm
[4] = steviol glycoside 700 ppm + yerba mate mono/dicaffeoylquinic acids 946 ppm
[5] = steviol glycoside 700 ppm + yerba mate mono/dicaffeoylquinic acids […]
[6] = steviol glycoside 700 ppm, sensory modifier 0 ppm
[7] = steviol glycoside 700 ppm + yerba mate mono/dicaffeoylquinic acids 270 ppm
[8] = steviol glycoside 700 ppm + yerba mate mono/dicaffeoylquinic acids 540 ppm
[9] = steviol glycoside 700 ppm + yerba mate mono/dicaffeoylquinic acids 810 ppm
[10] = RebM 700 ppm + cichoric acid (tartaric backbone) 514 ppm
[11] = RebM 700 ppm + cichoric acid (tartaric backbone) 772 ppm
[12] = RebM 700 ppm + cichoric acid (tartaric backbone) […]
[13] = RebM 700 ppm + rosmarinic acid 195 ppm
[14] = RebM 700 ppm + rosmarinic acid 391 ppm
[15] = RebM 700 ppm + rosmarinic acid 586 ppm
[16] = steviol glycoside 700 ppm + yerba mate mono/dicaffeoylquinic acids 236 ppm
[17] = steviol glycoside 700 ppm + yerba mate mono/dicaffeoylquinic acids 300 ppm
[18] = steviol glycoside 700 ppm + yerba mate mono/dicaffeoylquinic acids 400 ppm
[19] = steviol glycoside 700 ppm + yerba mate mono/dicaffeoylquinic acids 472 ppm
[20] = steviol glycoside 700 ppm + yerba mate mono/dicaffeoylquinic acids 500 ppm
[21] = steviol glycoside 700 ppm + yerba mate mono/dicaffeoylquinic acids 600 ppm
[22] = steviol glycoside 700 ppm + yerba mate mono/dicaffeoylquinic acids 700 ppm
[23] = steviol glycoside 700 ppm + yerba mate mono/dicaffeoylquinic acids 708 ppm
[24] = steviol glycoside 700 ppm + yerba mate mono/dicaffeoylquinic acids 800 ppm

With `C=C1C[C@@]23CC[C@H]4[C@@](C)(CCC[C@@]4(C)C(=O)O[C@@H]4O[C@H](CO)[C@@H](O)[C@H](O)[C@H]4O)[C@@H]2CC[C@]1(O[C@@H]1O[C@H](CO)[C@@H](O)[C@H](O[C@@H]2O[C@H](CO)[C@@H](O)[C@H](O)[C@H]2O)[C@H]1O[C@@H]1O[C@H](CO)[C@@H](O)[C@H](O)[C@H]1O)C3` [RebA, Rebaudioside A] the Sweetness linger [1, 3] was “Not observed”, the Sweetness linger [1, 4] was “Not observed” and the Sweetness linger [1, 5] was “Not observed”. For the same compound, the Sweetness linger [1, 6] was “Not observed”, the Astringency [2, 3] was 1 and the Astringency [2, 4] was 3. The Astringency [2, 5] was “Not observed” and the Astringency [2, 6] was “Not observed”.

In the case of `C=C1C[C@@]23CC[C@H]4[C@@](C)(CCC[C@@]4(C)C(=O)O[C@@H]4O[C@H](CO)[C@@H](O)[C@H](O)[C@H]4O[C@@H]4O[C@H](CO)[C@@H](O)[C@H](O)[C@H]4O)[C@@H]2CC[C@]1(O[C@@H]1O[C@H](CO)[C@@H](O)[C@H](O[C@@H]2O[C@H](CO)[C@@H](O)[C@H](O)[C@H]2O)[C@H]1O[C@@H]1O[C@H](CO)[C@@H](O)[C@H](O)[C@H]1O)C3` [RebD, Rebaudioside D], the Sweetness linger [1, 7] is reported as 3, the Sweetness linger [1, 8] is reported as 2 and the Sweetness linger [1, 9] is reported as 1. The Sweetness linger ([1]; steviol glycoside 700 ppm, about 200 ppm sensory modifier) was “reduced to commercially palatable levels”, the Sweetness linger [1, 6] was 3 and the Astringency [2, 7] was 2. For the same compound, the Astringency [2, 8] was 1, the Astringency [2, 9] was 2 and the Astringency [2, 6] was “Not observed”.

For `C=C1C[C@@]23CC[C@H]4[C@@](C)(CCC[C@@]4(C)C(=O)O[C@@H]4O[C@H](CO)[C@@H](O)[C@H](O[C@@H]5O[C@H](CO)[C@@H](O)[C@H](O)[C@H]5O)[C@H]4O[C@@H]4O[C@H](CO)[C@@H](O)[C@H](O)[C@H]4O)[C@@H]2CC[C@]1(O[C@@H]1O[C@H](CO)[C@@H](O)[C@H](O[C@@H]2O[C@H](CO)[C@@H](O)[C@H](O)[C@H]2O)[C@H]1O[C@@H]1O[C@H](CO)[C@@H](O)[C@H](O)[C@H]1O)C3` [RebM, Rebaudioside M], the Sweetness linger ([1]; 1:1 molar ratio with tartaric acid backbone modifier) was “no perceptible linger”, the Sweetness linger ([1]; 1:2 molar ratio with quinic acid backbone modifier) was “no perceptible linger” and the Sweetness linger [1, 10] was 0. It also gave a Sweetness linger [1, 11] of 0, a Sweetness linger [1, 12] of 0 and a Sweetness linger [1, 13] of 6. For the same compound, the Sweetness linger [1, 14] was 3, the Sweetness linger [1, 15] was 2 and the Sweetness linger ([1]; RebM 700 ppm, above about 300 ppm quinic backbone modifier) was “not perceptible”. The Sweetness linger ([1]; RebM 700 ppm, at or before about 200 ppm quinic backbone modifier) was “slight”, the Sweetness linger [1, 16] was 2 and the Sweetness linger [1, 17] was 2. It also gave a Sweetness linger [1, 18] of 0, a Sweetness linger [1, 19] of 0 and a Sweetness linger [1, 20] of 0. For the same compound, the Sweetness linger [1, 21] was 0, the Sweetness linger [1, 22] was 0 and 2 and the Sweetness linger [1, 23] was 0. It also gave a Sweetness linger [1, 24] of 0, a Sweetness linger [1, 6] of 6 and an Astringency [2, 10] of 0. For the same compound, the Astringency [2, 11] was 4, the Astringency [2, 12] was 0 and the Astringency [2, 13] was 0. The Astringency [2, 14] was 0, the Astringency [2, 15] was 0 and the Astringency ([2]; RebM 700 ppm, 0 ppm to 700 ppm of quinic backbone modifier) was “no perceptible astringency; also recorded: imperceptible”. For the same compound, the Astringency [2, 16] was 0, the Astringency [2, 17] was “Not observed” and the Astringency [2, 18] was “Not observed”. For the same compound, the Astringency [2, 19] was 0, the Astringency [2, 20] was 0 and the Astringency [2, 21] was “Not observed”. For the same compound, the Astringency [2, 22] was “Not observed”, the Astringency [2, 23] was 0 and the Astringency [2, 24] was “Not observed”. For the same compound, the Astringency [2, 6] was 0.
